{"source": "ChEMBL document CHEMBL1649521", "about": "“Influence of the cytochrome P450 2B6 genotype on population pharmacokinetics of efavirenz in human immunodeficiency virus patients” (Antimicrob Agents Chemother, 2009)", "key": {"[1]": {"assay": "Apparent oral clearance in patient with HIV infection at 600 mg/kg, […] QD", "type": "ADME, organism-based", "design": "dose 600 mg/kg, route oral", "conditions": "human, in vivo"}, "[2]": {"assay": "Apparent oral volume of distribution in patient with HIV infection at 600 mg/kg QD", "type": "ADME, organism-based", "design": "dose 600 mg/kg, route oral", "conditions": "human, in vivo, read-out: Vc/F"}}}
{"compound": "O=C1Nc2ccc(Cl)cc2[C@@](C#CC2CC2)(C(F)(F)F)O1", "note": "[EFAVIRENZ]", "values": [{"measurement": "CL/F", "setting": "[1]", "value": 154, "unit": "mL/min"}, {"measurement": "Vd/F", "setting": "[2]", "value": 295, "unit": "L"}]}
